The record followed here is patent publication US8912190B2, “Substituted heterocyclic compounds” (Gilead Sciences, Inc., priority 2008, dated 2014).

SMILES strings stand for the structures.

The target in one data set is T1, hERG potassium channel (Homo sapiens, UniProt Q12809).
T1 construct: expressed in transfected cells; host or cells: CHO (Chinese Hamster Ovary)
In words: hERG screening assay (PatchXpress patch clamp, CHO cells). The format is cell-based. Particulars: CHO cells expressing hERG; for HERG 1 uM (block of hERG current): compound at 1 uM; for HERG 10 uM (block of hERG current): compound at 10 uM. Here is the method:
Compounds were screened to test their activity in blocking the hERG potassium channel. The hERG channel is heterologously expressed in a CHO (Chinese Hamster Ovary) cell line. Cells were maintained with standard tissue culture procedures and stable channel expression was maintained with 500 μg/ml G418 in the culture medium. Cells were harvested for testing on the PatchXpress automated patch clamp with Accumax (Innovative Cell Technologies, San Diego, Calif.) to isolate single cells.
The following solutions were used for electrophysiological recordings. The external solution contained: 2 mM CaCl2; 2 mM MgCl2; 4 mM KCl; 150 mM NaCl; 10 mM Glucose; 10 mM HEPES (pH 7.4 with 1M NaOH, osmolarity). The internal solution contained: 140 mM KCl, 10 mM MgCl2, 6 mM EGTA, 5 mM HEPES, 5 mM ATP (pH adjusted to 7.25 with KOH).
hERG channels were activated when the voltage was stepped to +20 mV from the −80 mV holding potential. During a 5 second step at +20 mV, the channels activated and then largely inactivated, so the currents were relatively small. Upon returning to −50 mV from +20 mV, hERG currents transiently became much larger as inactivation was rapidly removed and then the channel closed. The first step to −50 mV for 300 ms was used as a baseline for measuring the peak amplitude during the step to −50 mV after channel activation. The peak current at −50 mV was measured both under control conditions and after addition of compound.
All compounds were prepared as 10 mM DMSO stocks in glass vials. Stock solutions were mixed by vigorous vortexing and sonication for about 2 minutes at room temperature. For testing, compounds were diluted in glass vials using an intermediate dilution step in pure DMSO and then further diluted to working concentrations in external solution. Dilutions were prepared no longer than 20 minutes before use.
After achieving the whole-cell configuration, cells were monitored for 90 seconds to assess stability and washed with external solution for 66 seconds. The voltage protocol described above was then applied to the cells every 12 seconds and throughout the whole procedure. Only cells with stable recording parameters and meeting specified health criteria were allowed to enter the compound addition procedure.
External solution containing 0.1% DMSO (vehicle) was applied to the cells first to establish the control peak current amplitude. After allowing the current to stabilize for […], 1 μM and then 10 μM test compounds were applied. Each compound concentration was added 4 times and cells were kept in test solution until the effect of the compound reached steady state or for a maximum of 12 minutes. After addition of test compound, a positive control (1 μM Cisapride) was added, and must block >95% of the current for the experiment to be considered valid. Washout in the external solution compartment was performed until the recovery of the current reached steady state. Data was analyzed using DataXpress, Clampfit (Molecular Devices, Inc., Sunnyvale) and Origin 7 (Originlab Corp.)

Data set [1] has as its target T2, wild-type human cardiac sodium channel, hNav1.5 (Homo sapiens, UniProt Q14524).
T2 construct: host or cells: HEK293
Description: Late INa screening assay (PatchXpress whole cell patch clamp). The format is cell-based. Particulars: compound at 10 uM; HEK293 hNav1.5; late INa generated with Tefluthrin or ATX II; read-out: Late INa 10 uM (percent block of late INa). Here is the method: The late sodium current (Late INa) and peak sodium current (Peak INa) assays were performed on an automated electrophysiology platform, PatchXpress 7000A (MDS Analytical Technologies, Sunnyvale, Calif.), using the whole cell patch clamp technique to measure currents through the cell membrane of up to 16 cells at a time. The assay used an HEK293 (human embryonic kidney) cell line heterologously expressing the wild-type human cardiac sodium channel, hNav1.5, purchased from Millipore (Billerica, Mass.). No beta subunits were coexpressed with the Na channel alpha subunit. Cells were maintained with standard tissue culture procedures, and stable channel expression was maintained with 400 μg/ml Geneticin in the culture medium. Cells isolated for use on PatchXpress were incubated for 5 minutes in Versene 1× and then for 2 minutes in 0.0125% Trypsin-EDTA (both at 37° C.) to ensure that 80-90% of the cells are single and not part of a cell cluster. Experiments were carried out at 24-27° C.
For both the Late INa and Peak INa assays, series resistance compensation was set to 50% and whole-cell compensation was performed automatically. Currents were low-pass filtered at 10 kHz and digitized at 31.25 kHz. Currents through open sodium channels were automatically recorded and stored in the DataXpress2 database (MDS Analytical Technologies, Sunnyvale, Calif.). Analysis was performed using DataXpress2 analysis software and data are compiled in Excel.
Compound stocks were routinely made in glass vials to 10 mM in dimethyl sulfoxide (DMSO). In some cases, when compounds were not soluble in DMSO, they are made in 100% ethanol. Stocks were sonicated as necessary. The extracellular solution for screening Late INa was composed of: 140 mM NaCl, 4 mM KCl, 1.8 mM CaCl2, 0.75 mM MgCl2, and 5 mM HEPES with pH adjusted to 7.4 using NaOH. The extracellular solution for screening Peak INa was composed of: 20 mM NaCl, 120 mM N-methyl-D glucamine, 4 mM KCl, 1.8 mM CaCl2, 0.75 mM MgCl2, and 5 mM HEPES with pH adjusted to 7.4 using HCl. The intracellular solution used to perfuse the inside of the cells for both the Late INa and Peak INa assays contained: 120 mM CsF, 20 mM CsCl, 5 mM EGTA, 5 mM HEPES and pH adjusted to 7.4 with CsOH. Compounds were diluted in extracellular solution to […] in glass vials and then transferred to glass well plates before robotic addition to the cells. The 0Na extracellular solution used at the end of each experiment for the Late INa and Peak INa assays to measure baseline current contained: 140 mM N-methyl-D-glucamine; 4 mM KCl; 1.8 mM CaCl2; 0.75 mM MgCl2; 5 mM HEPES and pH was adjusted to 7.4 with HCl.
For the Late INa assay, sodium channels were activated every 10 seconds (0.1 Hz) by depolarizing the cell membrane to −20 mV for 250 milliseconds (ms) from a holding potential of −120 mV. In response to a −20 mV voltage step, typical Nav1.5 sodium currents activated rapidly to a peak negative current and then inactivated nearly completely within 3-4 ms.
All compounds were tested to determine their activity in blocking the late sodium current. Late INa current was generated by adding 10 μM Tefluthrin (pyrethroid) to the extracellular solution while recording Na currents. For some experiments, 50 nM ATX II (sea anemone toxin), another late INa activator, was used to generate the late component. Both activators generated late components that are large, and thus block of the late component by compounds could be measured easily. For the purposes of the screening, late INa is defined as the mean current between 225 ms and 250 ms after stepping to −20 mV to activate Na channels. After establishing the whole cell recording configuration, late INa activators were added to each well 4 times over a 16-17 minute period so that the late component of the Na current reached a stable value. Compounds were then added (typically at 10 μM), in the presence of late INa activator, with 3 additions over the course of 7 or 8 minutes. […]

T1 sequence (Q12809 whole entry): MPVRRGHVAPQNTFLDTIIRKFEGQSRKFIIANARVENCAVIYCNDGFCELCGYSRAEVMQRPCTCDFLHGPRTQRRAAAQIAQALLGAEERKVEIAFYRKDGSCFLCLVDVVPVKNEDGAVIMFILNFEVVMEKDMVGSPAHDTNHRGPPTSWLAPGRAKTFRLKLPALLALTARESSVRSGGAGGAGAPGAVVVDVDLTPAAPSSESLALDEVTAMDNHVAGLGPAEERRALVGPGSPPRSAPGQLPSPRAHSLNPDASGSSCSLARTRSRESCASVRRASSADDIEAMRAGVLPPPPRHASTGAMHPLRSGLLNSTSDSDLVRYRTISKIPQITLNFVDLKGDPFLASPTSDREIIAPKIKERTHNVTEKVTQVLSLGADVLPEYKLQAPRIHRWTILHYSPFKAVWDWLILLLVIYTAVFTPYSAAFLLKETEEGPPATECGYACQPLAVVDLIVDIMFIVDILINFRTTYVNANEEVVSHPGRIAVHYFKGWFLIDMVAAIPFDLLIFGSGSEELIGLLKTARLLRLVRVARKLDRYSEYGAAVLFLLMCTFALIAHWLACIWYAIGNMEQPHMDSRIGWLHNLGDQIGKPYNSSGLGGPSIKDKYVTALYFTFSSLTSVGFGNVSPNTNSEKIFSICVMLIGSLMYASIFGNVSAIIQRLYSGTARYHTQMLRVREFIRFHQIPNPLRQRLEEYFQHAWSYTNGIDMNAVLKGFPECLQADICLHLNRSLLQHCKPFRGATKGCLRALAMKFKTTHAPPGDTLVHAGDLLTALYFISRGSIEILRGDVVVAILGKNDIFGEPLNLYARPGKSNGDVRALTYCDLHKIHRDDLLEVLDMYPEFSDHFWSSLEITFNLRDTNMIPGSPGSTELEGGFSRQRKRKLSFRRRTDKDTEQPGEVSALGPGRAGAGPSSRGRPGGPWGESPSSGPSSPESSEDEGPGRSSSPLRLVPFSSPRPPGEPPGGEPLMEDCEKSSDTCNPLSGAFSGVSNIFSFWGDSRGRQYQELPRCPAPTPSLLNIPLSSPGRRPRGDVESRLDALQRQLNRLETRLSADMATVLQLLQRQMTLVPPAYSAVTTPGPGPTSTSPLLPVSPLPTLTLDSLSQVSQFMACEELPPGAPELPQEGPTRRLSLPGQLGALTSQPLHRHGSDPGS
T2 sequence (Q14524 whole entry): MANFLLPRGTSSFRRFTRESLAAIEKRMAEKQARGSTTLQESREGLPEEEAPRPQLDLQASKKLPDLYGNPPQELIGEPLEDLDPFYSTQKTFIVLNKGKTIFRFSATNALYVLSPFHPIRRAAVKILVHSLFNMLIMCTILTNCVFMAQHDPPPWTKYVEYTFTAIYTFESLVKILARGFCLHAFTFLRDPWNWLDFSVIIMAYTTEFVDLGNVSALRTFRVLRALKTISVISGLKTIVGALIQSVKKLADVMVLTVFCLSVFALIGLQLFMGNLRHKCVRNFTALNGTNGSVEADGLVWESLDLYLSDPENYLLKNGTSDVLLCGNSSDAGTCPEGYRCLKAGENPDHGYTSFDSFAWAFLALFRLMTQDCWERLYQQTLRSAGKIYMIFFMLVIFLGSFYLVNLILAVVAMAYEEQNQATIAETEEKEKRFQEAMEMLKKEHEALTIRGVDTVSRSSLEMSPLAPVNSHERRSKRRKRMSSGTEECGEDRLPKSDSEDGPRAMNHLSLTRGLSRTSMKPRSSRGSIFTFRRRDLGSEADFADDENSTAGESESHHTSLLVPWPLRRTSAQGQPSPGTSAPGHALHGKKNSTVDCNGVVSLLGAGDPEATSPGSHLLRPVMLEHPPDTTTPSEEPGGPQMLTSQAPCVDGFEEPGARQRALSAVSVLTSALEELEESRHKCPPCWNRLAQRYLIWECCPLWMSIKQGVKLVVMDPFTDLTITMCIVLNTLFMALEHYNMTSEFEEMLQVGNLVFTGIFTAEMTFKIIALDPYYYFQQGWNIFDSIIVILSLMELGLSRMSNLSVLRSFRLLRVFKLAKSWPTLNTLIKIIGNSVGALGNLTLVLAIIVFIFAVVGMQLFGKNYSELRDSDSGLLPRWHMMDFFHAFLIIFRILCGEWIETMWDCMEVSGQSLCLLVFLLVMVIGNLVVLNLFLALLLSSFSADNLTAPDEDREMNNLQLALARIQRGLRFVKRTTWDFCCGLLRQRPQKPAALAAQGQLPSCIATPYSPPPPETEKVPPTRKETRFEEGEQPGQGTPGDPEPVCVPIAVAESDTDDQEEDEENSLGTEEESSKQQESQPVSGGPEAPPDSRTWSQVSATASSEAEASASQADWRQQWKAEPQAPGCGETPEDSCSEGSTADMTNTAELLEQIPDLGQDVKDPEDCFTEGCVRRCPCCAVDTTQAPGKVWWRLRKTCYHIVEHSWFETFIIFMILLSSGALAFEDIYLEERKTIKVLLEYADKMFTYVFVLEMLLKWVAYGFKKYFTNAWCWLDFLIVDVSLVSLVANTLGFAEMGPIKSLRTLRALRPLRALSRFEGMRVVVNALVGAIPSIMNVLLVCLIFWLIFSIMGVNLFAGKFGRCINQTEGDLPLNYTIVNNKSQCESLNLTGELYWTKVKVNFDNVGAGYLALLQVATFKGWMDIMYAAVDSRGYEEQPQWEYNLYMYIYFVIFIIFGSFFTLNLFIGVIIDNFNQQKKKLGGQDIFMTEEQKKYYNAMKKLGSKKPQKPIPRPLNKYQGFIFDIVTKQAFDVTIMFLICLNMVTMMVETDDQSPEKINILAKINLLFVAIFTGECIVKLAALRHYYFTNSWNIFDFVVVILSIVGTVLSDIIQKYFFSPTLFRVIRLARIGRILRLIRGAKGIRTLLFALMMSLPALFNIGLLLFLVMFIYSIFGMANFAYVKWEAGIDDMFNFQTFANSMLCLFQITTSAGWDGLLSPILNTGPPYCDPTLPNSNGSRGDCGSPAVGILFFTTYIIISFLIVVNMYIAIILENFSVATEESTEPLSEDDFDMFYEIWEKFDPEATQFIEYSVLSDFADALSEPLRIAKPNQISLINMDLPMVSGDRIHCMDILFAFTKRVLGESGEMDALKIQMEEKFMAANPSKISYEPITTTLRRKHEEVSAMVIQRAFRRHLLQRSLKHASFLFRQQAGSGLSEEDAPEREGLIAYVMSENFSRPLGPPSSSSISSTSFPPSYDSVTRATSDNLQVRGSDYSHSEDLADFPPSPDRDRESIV

As for `Cc1nc2cc(-c3cccc(OC(F)(F)F)c3)ccc2n(C)c1=O` [1,3-dimethyl-6-[3-(trifluoromethoxy)phenyl] quinoxalin-2(1H)-one], on hERG potassium channel, the “HERG 1 uM (block of hERG current)” value was found to be 19.5% and the “HERG 10 uM (block of hERG current)” value stood at 71.5%. The inhibition at 10 µM in data set [1] was 70.9%.
As for `Cn1c(=O)c(C(F)(F)F)nc2ccc(-c3ccc(OC(F)(F)F)cc3)cc21` [1-methyl-7-[4-(trifluoromethoxy)phenyl]-3-(trifluoromethyl)quinoxalin-2(1H)-one], at hERG potassium channel, the “HERG 1 uM (block of hERG current)” value came to 10.00% and the “HERG 10 uM (block of hERG current)” value is 39.0%. In addition, the inhibition at 10 µM in data set [1] stood at 38.7%.
